The source of these data is patent publication US6316451A, “Heterocyclyl anthracyclinone derivatives” (Pharmacia & Upjohn S.p.A., priority 1998, dated 2001).

The target in the assay is T1, Aβ1-40 peptide monomer (Homo sapiens, UniProt P05067).
T1 construct: An Aβ1-40 peptide monomer stock solution was prepared
Kind of assay: Inhibition of the seed-triggered aggregation of Aβ1-40 peptide monomer (HPLC quantitation of residual monomer). The assay is classed as biochemical. The following applies: 50 μm test compound; 20 μM Aβ1-40 monomer; 4 μm pre-formed sonicated Aβ1-40 fibrils (seed); phosphate buffer pH 7.4, 150 mM NaCl; two hours at 37° C. As to the method: The compounds disclosed in the present invention interfere with the aggregation of monomeric Aβ1-40 peptide stimulated by a seed of Aβ1-40 amyloid fibrils. The activity of the compounds was assessed according to the procedure reported below.
An Aβ1-40 peptide monomer stock solution was prepared by dissolving the peptide in dimethylsulfoxide at a concentration of 33.33 mg/ml. The stock solution was further diluted 11.5 times with dimethylsulfoxide. This solution was then diluted with 10 mM phosphate buffer pH 7.4 containing 150 mM sodium chloride to prepare the test solution.
To an eppendorf tube containing 47 μl of Aβ1-40 peptide monomer solution were added 3 μl of a 830 μM water solution of the test compound containing 66.4 μM, based on the Aβ1-40 monomer content, of pre-formed sonicated Aβ1-40 fibrils: the resulting solution was 20 μM in Aβ1-40 monomer, 50 μm in the test compound and contained 4 μm, based on the Aβ1-40 monomer content, of pre-formed sonicated Aβ1-40 fibrils. The aggregation was allowed to proceed for two hours at 37° C. The suspension was then centrifuged at 15000 rpm for 15 minutes at +4° C., the supernatant was collected and the Aβ1-40 monomer was quantitated by HPLC.
The activity is expressed as the percent of inhibition of the aggregation of a 20 μM Aβ1-40 monomer solution stimulated by 4 μm, based on the Aβ1-40 monomer content, pre-formed sonicated Aβ1-40 fibrils.

Molecules are shown by their SMILES.

T1 sequence (P05067 672-711 limits assumed): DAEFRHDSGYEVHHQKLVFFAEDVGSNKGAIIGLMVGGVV

In the case of `COc1cccc2c1C(=O)c1c(O)c3c(c(O)c1C2=O)C[C@@](O)(c1csc(NCCN(C)C)n1)C[C@@H]3O` [Compound 1d, 9-Deacetyl-9-[2-(2-dimethylaminoethylamino)-thiazol-4-yl]-daunomycinone], the “% INHIBITION of the aggregation of Aβ1-40 monomer” value (from here on “% INHIBITION”) is reported as 33.7%.

`COc1cccc2c1C(=O)c1c(O)c3c(c(O)c1C2=O)C[C@@](O)(c1csc(N2CCN(C)CC2)n1)C[C@@H]3N1CCOCC1` [Compound 1j, 7-Deoxy-7-(4-morpholinyl)-9-deacetyl-9-[2-(4-methyl-perazin-1-yl)-thiazol-4-yl]-daunomycinone]: the “% INHIBITION” value is recorded as 49.2%.

For the compound `COc1cccc2c1C(=O)c1c(O)c3c(c(O)c1C2=O)C[C@@](O)(c1csc(N2CCN(C)CC2)n1)CC3` [Compound 1i, 7-Deoxy-9-deacetyl-9-[2-(4-methyl-piperazin-1-yl)-thiazol-4-yl]-daunomycinone], the “% INHIBITION” value worked out at 31.7%.
